Data on 91 compounds can be found in a melting point compilation (Tetko et al.; mined from patent text by program, amines drawn as free bases though some values may be those of a salt).

As a reminder, the melting point is the temperature, or range, at which the solid turns liquid.

Compound `CC(=O)N(C)C(=N[N+](=O)[O-])NCc1csc(Cl)n1` showed a melting point of 105 to 108 °C.
On to `CCOC(=O)c1c(N=Cc2ccc(-c3cccs3)s2)sc(N=Cc2ccc(-c3cccs3)s2)c1C(=O)OCC`, for which the melting point lay within 130 to 132 °C.
In the case of `CCOC(=O)COc1cccc2nc3c(c(N)c12)CCCC3` it was 141 to 142 °C.
Next, `CC(C)Cc1ccc2sc3cc(CC(=O)O)ccc3c2c1`: 133 to 135 °C; `CCOC(=O)c1ncc2[nH]c3ccc(SC)cc3c2n1`: 265 to 266 °C; `C=CCOc1ccccc1N(CC(O)CNC(C)C)S(C)(=O)=O` (stereo unspecified): 139 to 141 °C.
In the case of `C[C@@H](O)C(O)(Cn1ccnc1)c1ccc(F)cc1F` (stereo partly specified) it was 73 to 76 °C; in that of `COc1ccc2ccc(NC(=O)c3cccc(N(C)C)c3)nc2n1`, 130 °C; in that of `CC(C)[C@H](NC(=O)N(C)Cc1ccccn1)C(=O)N[C@@H](Cc1ccccc1)C[C@H](O)[C@H](Cc1ccccc1)NC(=O)OCc1cccnc1`, 58 to 61 °C.
For `Cc1ccc(C(=O)c2cnoc2C2CC2)cc1S(C)(=O)=O`, the melting point is 126 to 128 °C.
In the case of `CCn1cc(C(=O)O)c(=O)c2cnc(N3CCN(CCO)CC3)nc21` it was 222 °C; in that of `O=[N+]([O-])c1cccc(CNc2nnn[nH]2)c1`, 208 to 210 °C.
In the case of `Clc1ccc(C(c2ccc(Cl)cc2)n2ncnn2)cc1` it was 91 to 92 °C; in that of `Cc1nc(N)c(C#N)c(N2CCc3ccccc3CC2)n1`, over 200 °C; in that of `CC(C)(Oc1ccc(CC(=O)Nc2ccc(F)cc2)cc1)C(=O)O`, 198 °C.
In the case of `CC(CNc1ccc(C(=O)O)cc1)Oc1ccc(F)cc1` (stereo unspecified) it was 171 to 172 °C.
`CON(C)C(=O)c1cc2c(Sc3ccc(C)cc3)cncc2s1`: the melting point was 103 to 107 °C.
In the case of `O=C1C2=C(SCCO2)C(=O)N1c1ccc2cccnc2n1` it was 200 °C; in that of `CC1CCc2c(cc(-c3ccccc3)n2-c2ccc(O)c(C(=O)O)c2)C1` (stereo unspecified), 213 to 215 °C.
Next, `CN(Cc1sc2c(=O)c(C(=O)NCc3ccc(Cl)cc3)cn(C)c2c1COCC[Si](C)(C)C)C[C@@H](O)c1ccco1`: 110 to 113 °C.
`Nc1nc2c(s1)CCCc1ccc(F)cc1-2` gave a melting point of 270 °C.
In the case of `Cc1cc(C)n(-c2nnc(-c3ccc(Cl)cc3)c(C)n2)n1` it was 151 to 152 °C.
Regarding `O=C1CCC(c2ccc(Cl)c(Cl)c2)c2ccccc2N1` (stereo unspecified), the melting point lay within 191 to 194 °C.
For `O=C(Cl)Oc1ccc(Cl)c(Cl)c1`, the melting point lay in the range of 51 to 53 °C.
Regarding `Cc1cc(Br)cc(-c2ccc3c(c2)C(C)(C)OC(=S)N3)c1`, the melting point was 183 to 184 °C.
In the case of `Cc1cn(-c2ccc(Br)cc2C#N)cn1` it was 166 °C; in that of `Cc1ccc(C(=O)Nc2ccc(S(N)(=O)=O)cc2)c(SSc2cc(C)ccc2C(=O)Nc2ccc(S(N)(=O)=O)cc2)c1`, 319 to 320 °C.
In turn, `CC1(C)Oc2ccc(C#N)cc2C(c2cccn(Cc3ccccc3)c2=O)C1O` (stereo unspecified) showed a melting point of 120 to 122 °C.
As for `C=CCn1nc(-c2sc(C(=O)NC(C)C)nc2-c2ccccc2)ccc1=O`, the melting point lay within 166 to 167 °C.
Next, `CC(=O)C=C(c1ccc(C#N)cc1)n1ccnc1`: 123 to 126 °C.
In the case of `Cc1nc(N)nc(N)c1-c1ccc(F)cc1F` it was 291 to 296 °C.
On to `N#CCCC=NNc1ccc(CS(N)(=O)=O)cc1`, for which the melting point was in the range of 175 to 176 °C.
In the case of `Cc1cccc(-c2sc(N)nc2-c2ccnc(-c3ccc(CN4CCCC4)cc3)c2)n1`, the melting point was determined as 200 °C.
On to `CCN1C[C@@H](O)[C@H](N(C)C(=O)c2ccc(Cl)cc2)C1` (relative stereo), for which the melting point was in the range of 91 to 93 °C.
In the case of `CC(C)(C)ONC(=O)n1cc(C(=O)C2CSC(c3cccnc3)N2)c2ccccc21` (stereo unspecified) it was 101 to 103 °C; in that of `COc1ccc(C(=O)Oc2ccc(S(N)(=O)=O)cc2)cc1C12CC3CC(CC(C3)C1)C2`, 223 to 224 °C; in that of `CN1Cc2c(-c3noc(CN4CC=CC4)n3)ncn2-c2ccccc2C1=O`, 215 to 220 °C.
As for `CCOCCOCCn1c(C=O)cc2c1CC(c1ccccc1Cl)C1C(=O)NC(=O)C21` (stereo unspecified), the melting point lay within 190 to 193 °C.
Next, `OCCCCOc1cccc(/C=C/c2nc3ccccc3s2)c1`: 88 to 90 °C; `COc1cc(NC(=O)CN2CCN(c3ncccc3C#N)CC2)cc(OC)c1OC`: 123 to 124 °C.
In the case of `CO[C@@H]1[C@H](O)[C@@H](CO)O[C@H]1n1cnc2c(N[C@H](C)Cc3ccc(Cl)s3)ncnc21` it was 84 to 85 °C; in that of `CCc1c(CO)nc(-c2ccc(OC)c(OC)c2)c2cc(OC)c(OC)cc12`, 160 to 163 °C.
On to `Cc1cc(-c2ncn3c(C(F)(F)F)cc(-c4ccc(Cl)c(C)c4)nc23)ccn1`, for which the melting point was found to be 246 °C.
In the case of `NN=C1CCc2ccccc21` it was 84 to 86 °C.
Next, `CSc1sc(-c2ccccn2)c2c1C(=O)CC(C)(C)C2`: 217 to 220 °C; `C#CCN(C(C)=O)c1cccc(-c2ccc3nnc(C)n3n2)c1`: 195 to 198 °C.
For the compound `O=C(O)CCC#Cc1ccccc1Br`, the melting point fell in the range of 87 to 91 °C.
In the case of `CCC(=NOCc1ccc(Cl)cc1)c1cc(Cl)ccc1N(C(C)=O)S(=O)(=O)C(F)(F)F` it was 64 to 66 °C.
In the case of `COC(=O)C=Cc1ccc(OC)c(C)c1` it was 70 to 73 °C.
In the case of `CC(C)(C)OC(=O)NC1CCC(C(=O)N2CCC(c3[nH]nc4c3C(=O)c3c(NC(=O)NN5CCOCC5)cccc3-4)CC2)CC1` (stereo unspecified) it was 178 to 180 °C.
In turn, `N#CCOc1cc(Cl)c2c(=O)c(-c3ccccc3Cl)coc2c1` displayed a melting point of 174 to 175 °C.
In turn, `CN(C)C(=N)Nc1ccccc1-c1ccc(Cl)cc1` showed a melting point of 150 to 152 °C.
In the case of `O=C(O)CNc1cc(Cl)ccc1[N+](=O)[O-]` it was 147 to 148 °C; in that of `N#Cc1nn(-c2c(Cl)cc(C(F)(F)F)cc2Cl)c(Cl)c1SC(F)(F)F`, 131 to 132 °C; in that of `CCOC(=O)C(=O)Nc1ccc(C(F)(F)F)cc1C`, 120 to 121 °C.
Next, `CCCSc1cccc2c1C(=O)c1cccc(SCCC)c1C2=O`: 232 to 233 °C.
Next, `O=C(O)C1C=CCn2c(=O)n(CCS)c(=O)n21` (stereo unspecified): 156 to 158 °C; `CCOC1CC2(C)C(CCC3C4CC5OC5C4(C)CC(N(C)C)C32)CC1O` (stereo unspecified): 149 to 151 °C; `COc1cn(-c2ccc(-c3ncco3)cc2F)nc(-c2ccnn2-c2ccccc2)c1=O`: 223 to 225 °C.
The compound `CCCNc1nc(NCc2ccc(NC(=O)c3ccc(F)cc3)cc2)c2ccc(C)cc2n1` came in with a melting point of 170 to 174 °C.
Next, `COc1cc(C=CC(=O)OC2CC3CC(OC(=O)c4cc(OC)c(OC)c(OC)c4)CC2N3C)cc(OC)c1OC` (stereo unspecified): 40 to 42 °C; `OCCN=Cc1ccc(Br)cc1`: 79 to 81 °C.
With `O=C1CCCCCC1c1ncc[nH]1` (stereo unspecified), the melting point lay within 68 to 69 °C.
Compound `O=S(=O)(Nc1cc(Cl)cc(Cl)c1)c1cc(Br)ccc1O` registered a melting point of 158 to 159 °C.
`CN(C)c1ccc([N+](=O)[O-])cc1C#N`: the melting point lay in the range of 109 to 110 °C.
For the compound `CCc1cc(CCc2nc3ccccc3o2)c(=O)[nH]c1COCc1ccccc1`, the melting point is 140 to 142 °C.
In the case of `CC(C)(C)OC(=O)N1CCC(c2ccc([N+](=O)[O-])cc2)CC1` it was 60 to 62 °C; in that of `O=C1C(=O)c2ccccc2C2=C1SCC1(CCN(CC3CCCO3)CC1)O2` (stereo unspecified), 155 to 159 °C.
Next, `CC1CCC(C2=C(O)C(=O)c3ccccc3C2=O)CC1` (stereo unspecified): 101 °C; `O=CNC1=NN(c2ccccc2)C(c2ccc(Cl)cc2)C1` (stereo unspecified): 135 to 136 °C; `CCCc1c(OCC(O)COc2ccc(C(=O)O)cc2Cl)ccc(C(C)=O)c1O` (stereo unspecified): 100 to 103 °C.
On to `CC(=O)c1ccc(-n2c(-c3cc(-c4ccccc4)c(N4CCOCC4)s3)nc3ccccc3c2=O)cc1`, for which the melting point is over 275 °C.
On to `CC(C)(C)N[C@@H]1CCc2c(ccc(OCc3ccccc3)c2C#N)[C@H]1O` (relative stereo), for which the melting point lay in the range of 120 to 122 °C.
In turn, `CCC=C(Cc1ccc(Cl)cc1Cl)n1cncn1` gave a melting point of 127 °C.
Next, `Oc1cccc2c1nc(-c1c(F)cccc1F)n2Cc1c(F)cccc1F`: 257 to 259 °C; `N=C(NS(=O)(=O)C=Cc1ccc(Cl)c(Cl)c1)c1ccccc1`: 144 to 146 °C.
In the case of `C#CCNC(=O)C(F)(F)F` it was 31 to 33 °C; in that of `COc1ccc2c(c1)Sc1cc(OC)ccc1N2C`, 166 to 167 °C.
In the case of `CC(C)(C)OC(=O)NN=Cc1cccc(C#N)c1` it was 115 to 158 °C; in that of `CN(C)C=CC(=O)c1ccc(F)cc1`, 83.5 to 84 °C.
The compound `CS(=O)(=O)c1ccc(-c2cnn(-c3ccc(F)cc3)c(=O)c2-c2cccc(F)c2)cc1` displayed a melting point of 199 to 201 °C.
In the case of `O=C1NCC(c2ccccc2)SCC1N1C(=O)c2ccccc2C1=O` (stereo unspecified), the melting point lay in the range of 240 to 247 °C.
Next, `CC(C)OCc1cnc2c([N+](=O)[O-])cccc2c1Cl`: 83 to 86 °C.
Take `CN1C(=O)c2c(Cl)cc(Cl)c(Cl)c2C1=O`: the melting point fell in the range of 166 to 168 °C.
Next, `N#Cc1n[nH]cc1-c1ccc(Cl)cc1C(=O)c1ccccc1Cl`: 183 to 184 °C.
With `CC(C)(C)[C@@H](NS(=O)(=O)c1ccc(Oc2ccc(Cl)cc2)cc1)C(=O)O`, the melting point lay in the range of 138 to 140 °C.
Compound `COc1cc2ccc(S(=O)(=O)Cl)cc2cc1OC` yielded a melting point of 128 to 130 °C.
In the case of `O=C(O)CN(Cc1ccccc1)C(=S)CCc1nc2c(F)c(F)cc(F)c2s1` it was 138 to 140 °C; in that of `CCCCCCCCCCCCCCCCCC(=O)NCC(C)(C)COC(=O)CCCCCCCCCCCCCCCCC`, 60 to 62 °C; in that of `CC(C)OC(=Cn1cnnn1)c1ccc(Cl)cc1Cl`, 82 °C.
In the case of `COc1ccc2c(Cc3c(Cl)cncc3Cl)nn(CC(=O)O)c(=O)c2c1` it was 221 to 222 °C.
